Data published in PMC12292835, “Amylin Receptor 1 Mutagenesis Revealed a Potential Role of Calcitonin Serine 29 in Receptor Interaction” (Biomedicines, 2025).
Where a SMILES comes first, the peptide text is derived from it. The star is where a group is joined. FITC = O=C1OC2(c3ccc(O)cc3Oc3cc(O)ccc32)c2ccc(NC(=S)*)cc21

What was measured:
receptor ECD = receptor ECD binding; cited from earlier work
Description: The salmon calcitonin C-terminal fragment was reported to have micromolar affinity (KI 1~3 μM) both for calcitonin and amylin receptor ECDs. The fluorescein isothiocyanate (FITC)-labeled salmon calcitonin fragment (FITC-sCT(22–32)) was used as a peptide probe for the receptor–ligand binding assay in the current study. FITC addition to the N-terminus of an amylin receptor antagonistic peptide AC413(6–25) Y25P was previously shown to increase the peptide affinity for receptor ECD binding by more than 10-fold. Based on the binding affinity of FITC-sCT(22–32) measured in the current ...

[1] = target: T1, amylin receptor 1 ECD with calcitonin receptor N124A mutation (Homo sapiens, UniProt O60894+P30988, N124A); experiment: FP saturation binding, N124A; details: for Average fluorescence intensity change upon receptor ECD binding: % of a free probe intensity, Mean ± S.D., N124A, max receptor 1 μM; for decrease of binding affinity: N124A versus wild-type receptor ECD
T1 construct: pHLsec/hRAMP1.24–111-(GSA)3-hCTR.34–141.N124A-H6 (D-pJS005); H6 (hexahistidine) (C); made in house; host or cells: HEK293 (transient transfection, secreted, N-glycosylated)
T1 sequence (O60894 24-111): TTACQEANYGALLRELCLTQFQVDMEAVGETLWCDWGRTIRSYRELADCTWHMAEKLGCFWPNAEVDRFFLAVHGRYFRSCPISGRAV
T1 sequence (P30988 34-141 N124A): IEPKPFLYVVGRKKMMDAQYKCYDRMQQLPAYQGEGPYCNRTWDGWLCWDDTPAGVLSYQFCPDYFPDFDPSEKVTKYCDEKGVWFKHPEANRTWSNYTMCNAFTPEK
Source text: pHLsec-based vectors were used to express wild-type and mutated amylin receptor 1 extracellular domains as secreted proteins to cell culture media. The plasmid DNA construct of the wild-type amylin receptor 1 extracellular domain, pHLsec/hRAMP1.24–111-(GSA)3-hCTR.34–141-H6 (H-pSL005) was previously described. The following DNA vector plasmids were made for this study: pHLsec/hRAMP1.24–111-(GSA)3-hCTR.34–141.D97A-H6 (D-pSL009), pHLsec/hRAMP1.24–111-(GSA)3-hCTR.34–141.D97E-H6 (D-pJS001), pHLsec/hRAMP1.24–111-(GSA)3-hCTR.34–141.D101A-H6 (D-pJJ003), pHLsec/hRAMP1.24–111-(GSA)3-hCTR.34–141.D101E-H6 (D-pJJ002), pHLsec/hRAMP1.24–111-(GSA)3-hCTR.34–141.E123A-H6 (D-pJJ004), pHLsec/hRAMP1.24–111-(GSA)3-hCTR.34–141.E123D-H6 (D-pJJ001), pHLsec/hRAMP1.24–111-(GSA)3-hCTR.34–141.N124A-H6 (D-pJS005), pHLsec/hRAMP1.24–111-(GSA)3-hCTR.34–141.N124D-H6 (D-pJS006), pHLsec/hRAMP1.24–111-(GSA)3-hCTR.34–141.N135A-H6 (D-pJW001), and pHLsec/hRAMP1.24–111-(GSA)3-hCTR.34–141.N135D-H6 (D-pJS002). The mutations were introduced to the calcitonin receptor extracellular domain by using DNA Assembly reaction. Coding sequences of the receptor expression vectors were confirmed with Sanger sequencing by Bionics (Seoul, Republic of Korea). DNA plasmid vectors were extracted and were purified from bacterial cells with NucleoBond® Extra Midi Plus kit (Macherey-Nagel, Germany). The purified DNA vectors were stored at −20 °C until their use for mammalian cell transfection.
The overall experimental procedure of reconstituting the functional amylin receptor 1 extracellular domain (ECD) as the fusion protein of RAMP1 ECD and the calcitonin receptor ECD was previously described. The wild-type and mutated amylin receptor 1 ECDs were expressed from HEK293 cells with transient transfection with polyethylenimine. The expressed receptor proteins were secreted to cell culture media for 4 days at 37 °C. The media were collected for the receptor protein purification. Initial dialysis was performed with the dialysis buffer (Tris 25 mM (pH 7.4), NaCl 150 mM, and imidazole 10 mM) overnight. […] Then, a size exclusion column chromatography (SEC) was performed with SEC column (Cytiva, HiLoad® 16/600 Superdex® 200 pg) and SEC buffer (Tris 50 mM (pH 7.4), NaCl 150 mM, and glycerol (v/v) 10%) as previously described. As the final step, the purified receptor proteins were dialyzed to storage buffer (HEPES 25 mM (pH 7.4), NaCl 150 mM, and glycerol (v/v) 50 %) and were stored at −60 °C until their use for the receptor–ligand binding assay. […]
The overall procedure of the FP binding assay with a saturation binding format was previously described. […] FITC-labeled peptide probes were incubated for 1 h at room temperature with the purified receptor protein prior to fluorescence signal measurement. […]

Average fluorescence intensity change upon receptor ECD binding [1] | decrease of binding affinity [1] | Structure (SMILES) | increase of peptide affinity by FITC addition to the N-terminus (receptor ECD)
87 ± 2% | 8.2 fold | CC(C)C[C@H](NC(=O)[C@H](CCCNC(=N)N)NC(=O)[C@@H](NC(=O)[C@H](CC(C)C)NC(=O)[C@H](Cc1ccccc1)NC(=O)[C@H](CC(N)=O)NC(=O)[C@H](C)NC(=S)Nc1ccc2c(c1)C(=O)OC21c2ccc(O)cc2Oc2cc(O)ccc21)C(C)C)C(=O)N[C@@H](CCC(N)=O)C(=O)N[C@H](C(=O)N[C@@H](Cc1ccc(O)cc1)C(=O)N1CCC[C@H]1C(=O)N[C@@H](CCCNC(=N)N)C(=O)N[C@H](C(=O)N[C@@H](CC(N)=O)C(=O)N[C@H](C(=O)NCC(=O)N[C@@H](C)C(=O)N[C@@H](CC(N)=O)C(=O)N[C@H](C(=O)N1CCC[C@H]1C(N)=O)[C@@H](C)O)C(C)C)[C@@H](C)O)[C@@H](C)O [FITC-AC413(6–25) Y25P] ({FITC}-ANFLVRLQTYPRTNVGANTP-NH2; C-terminus assumed) | more than 10 fold
85 ± 11% | more than 10 fold | C[C@@H](O)[C@H](NC(=O)[C@H](CC(N)=O)NC(=O)[C@@H](NC(=O)[C@H](CCCNC(=N)N)NC(=O)[C@@H]1CCCN1C(=O)[C@H](Cc1ccc(O)cc1)NC(=S)Nc1ccc2c(c1)C(=O)OC21c2ccc(O)cc2Oc2cc(O)ccc21)[C@@H](C)O)C(=O)NCC(=O)N[C@@H](CO)C(=O)NCC(=O)N[C@H](C(=O)N1CCC[C@H]1C(N)=O)[C@@H](C)O [FITC-sCT(22–32)] ({FITC}-YPRTNTGSGTP-NH2; C-terminus assumed) | 
